A word on the AUC(0-t): it is exposure summed from dosing to a finite time, without extrapolation to infinity. For orientation: Cmax means the highest concentration seen after dosing. The term Tmax denotes the time at which the peak concentration occurs. Broadly, the bioavailability is the share of a dose that reaches the circulation, judged against a reference dose that is usually intravenous. A higher bioavailability goes with much systemic uptake.

Two compounds from patent publication US20220370450A1, “CONTROLLED-RELEASE COMPOSITION FOR ORAL ADMINISTRATION COMPRISING COMPLEX OF ALPHA ADRENERGIC BLOCKER COMPOUND AND CLAY MINERAL” (Korea Institute Of Geoscience And Mineral Resources, priority 2019, published 2022) can be followed below.

For data set [1] the following is noted: rat, in vivo, po, 1 mg/kg.
Experimental: (§1) The breeding conditions of the experimental animals were as follows.
(§2) After the femoral region of the fixed rat was shaved, the blood-gathering was prepared by injecting a cannula. A drug-bentonite complex dispersion solution as an experimental group and a drug aqueous solution as a control group were administered using an oral zonde and then a certain amount of plasma was collected through the cannula for each predetermined time and the plasma drug concentration was measured.
(§3) The drug concentrations in the plasma samples were analyzed using a mass spectrometer.
Data set [2] can be described thus: Drug release experiment using a semi-permeable membrane. The format is physicochemical. Conditions: for elution rate: in both pH 1.2 and 7.8; for time within which most of the drug was released / drug released within initial 1 hour: semi-permeable membrane bag, cut-off 12,000 to 14,000 Da, 37° C.; for drug released within initial 1 hour: eluate pH 1.2 or pH 7.8; for release rate (membrane release amount of drug per unit time) of the drug solution relative to the drug-bentonite complex dispersion solution: semi-permeable membrane cut-off 12,000 to 14,000 Da. Here is the method: The amount of the drug-bentonite complex was adjusted so that the drug final concentration inside the elution system became 1 μg/ml. At this time, as the eluate, a 0.1 N hydrochloric acid solution of pH 1.2 and a phosphate buffer of pH 7.8 were used and the elution was performed while maintaining 37° C. While the eluate outside the semi-permeable membrane was partially taken by time and the same amount of eluate was compensated, the experiment was conducted, and the drug concentration of the taken sample was analyzed using high performance liquid chromatography.

The next data set can be described thus: in vivo. The note with it: Sprague-Dawley, rat, po, 1 mg/kg.

Experimental for in vivo: as §1, §2, §3

Consider `COc1cc2nc(N3CCN(C(=O)C4COc5ccccc5O4)CC3)nc(N)c2cc1OC` (centres unmarked) [Doxazosin, doxazosin], for which, in data set [1], the “time within which the plasma concentration reached the maximum plasma concentration (Cmax)” value fell in the range of 30 to 60 min. Also, the “release amount of the drug solution relative to the complex dispersion solution” value in data set [2] (after 4 hours of the test) was “two times larger”. Besides, in data set [2], the elution rate entry is “fast elution rate”, the “time within which most of the drug was released” value is at most 4 h, the “drug released within initial 1 hour” value is reported as at least 50% and the “release rate (membrane release amount of drug per unit time) of the drug solution relative to the drug-bentonite complex dispersion solution” value is “two times larger”. In the data set “in vivo”, the AUC(0-t) was 186 ± 54.7 ng·h/mL, the Cmax amounted to 67.3 ± 14.2 ng/mL, the Tmax came to 45 ± 15 min and the bioavailability is 100%.

Consider `COc1cc2nc(N3CCN(C(=O)c4ccco4)CC3)nc(N)c2cc1OC` [Prazosin, prazosin], for which the “release amount of the drug solution relative to the complex dispersion solution” value in data set [2] (after 2 hours of the test, pH 1.2) is “two times larger”. For the same compound, the “release amount of the drug solution relative to the complex dispersion solution” value in data set [2] (after 2 hours of the test, pH 7.8) is “significantly larger”. In data set [2], the elution rate entry is “fast elution rate”, the “time within which most of the drug was released” value is at most 4 h, the “drug released within initial 1 hour” value is listed as at least 70% and the “release rate (membrane release amount of drug per unit time) of the drug solution relative to the drug-bentonite complex dispersion solution” value is “larger”. In the data set “in vivo”, the AUC(0-t) was 247 ± 45.1 ng·h/mL, the highest level (Cmax) was 129 ± 36.2 ng/mL, the time to peak (Tmax) is 22.8 ± 7.8 min and the bioavailability was 100%.
